Legend:
[1] = excess molar enthalpy (molar enthalpy of mixing); xn = mol fraction of the nth substance listed; details: 308.15 K, 101 kPa, Liquid, 2-drop calorimeter (CSC 4600_
[2] = xn = mol fraction of the nth substance listed; details: 101 kPa, Liquid; for mass density: Vibrating tube method

c1ccncc1 [pyridine] + C1CCOCC1
[1]
Details | excess molar enthalpy [kcal/mol]
x2 = 0.0552 | 0.00315
x2 = 0.1006 | 0.00626
x2 = 0.1525 | 0.0101
x2 = 0.2014 | 0.0141
x2 = 0.2915 | 0.0215
x2 = 0.3462 | 0.0254
x2 = 0.3871 | 0.029
x2 = 0.4217 | 0.0314
x2 = 0.4853 | 0.0347
x2 = 0.5363 | 0.0376
x2 = 0.5802 | 0.0387
x2 = 0.6461 | 0.039
x2 = 0.6864 | 0.0391
x2 = 0.7344 | 0.0374
x2 = 0.7856 | 0.0341
x2 = 0.8315 | 0.0298
x2 = 0.8911 | 0.0219
x2 = 0.9347 | 0.0139

[2]
Details | mass density, 298.15 K [kg/m3] | mass density, 303.15 K [kg/m3] | mass density, 308.15 K [kg/m3] | speed of sound, 298.15 K [m/s] | speed of sound, 303.15 K [m/s] | speed of sound, 308.15 K [m/s]
x2 = 0 | 978.249 | 973.224 | 968.166 | 1417.6 | 1397.4 | 1377.1
x2 = 0.0427 | 973.663 | 968.634 | 963.658 | 1411.9 | 1391.4 | 1370.9
x2 = 0.1021 | 967.309 | 962.276 | 957.232 | 1403.6 | 1382.9 | 1362.3
x2 = 0.1883 | 958.157 | 953.12 | 948.063 | 1391.4 | 1370.2 | 1349.4
x2 = 0.2415 | 952.565 | 947.532 | 942.634 | 1383.7 | 1362.2 | 1341.1
x2 = 0.2853 | 948.002 | 942.969 | 938.037 | 1377.4 | 1355.6 | 1334.3
x2 = 0.3438 | 941.972 | 936.936 | 931.957 | 1368.8 | 1346.7 | 1325.4
x2 = 0.3742 | 938.871 | 933.829 | 928.814 | 1364.2 | 1342.1 | 1320.6
x2 = 0.4263 | 933.597 | 928.553 | 923.491 | 1356.5 | 1334 | 1312.5
x2 = 0.4642 | 929.793 | 924.748 | 919.649 | 1350.7 | 1328.2 | 1306.7
x2 = 0.5364 | 922.65 | 917.601 | 912.425 | 1339.8 | 1317.1 | 1295.4
x2 = 0.5721 | 919.167 | 914.108 | 908.895 | 1334.4 | 1311.6 | 1289.8
x2 = 0.6283 | 913.73 | 908.661 | 903.408 | 1325.8 | 1302.9 | 1281.1
x2 = 0.6872 | 908.097 | 903.027 | 897.739 | 1316.9 | 1293.9 | 1271.9
x2 = 0.7336 | 903.711 | 898.628 | 893.335 | 1309.8 | 1286.9 | 1264.7
x2 = 0.7823 | 899.149 | 894.056 | 888.752 | 1302.5 | 1279.5 | 1257.3
x2 = 0.8351 | 894.248 | 889.143 | 883.845 | 1294.4 | 1271.5 | 1249.2
x2 = 0.8752 | 890.543 | 885.431 | 880.16 | 1288.5 | 1265.4 | 1243.1
x2 = 0.9354 | 885.027 | 879.898 | 874.668 | 1279.5 | 1256.4 | 1234.1

Cc1ccccn1 [2-methylpyridine] + C1CCOCC1
[1]
Details | excess molar enthalpy [kcal/mol]
x2 = 0.0511 | 0.00394
x2 = 0.1102 | 0.00915
x2 = 0.1773 | 0.016
x2 = 0.2121 | 0.0196
x2 = 0.2683 | 0.0253
x2 = 0.3182 | 0.03
x2 = 0.3905 | 0.0356
x2 = 0.4304 | 0.0391
x2 = 0.4822 | 0.0413
x2 = 0.5216 | 0.0437
x2 = 0.5755 | 0.0442
x2 = 0.6213 | 0.0442
x2 = 0.6786 | 0.0428
x2 = 0.7288 | 0.0409
x2 = 0.7754 | 0.0373
x2 = 0.8216 | 0.0323
x2 = 0.8852 | 0.0232
x2 = 0.9217 | 0.0168

[2]
Details | mass density, 298.15 K [kg/m3] | mass density, 303.15 K [kg/m3] | mass density, 308.15 K [kg/m3] | speed of sound, 298.15 K [m/s] | speed of sound, 303.15 K [m/s] | speed of sound, 308.15 K [m/s]
x2 = 0 | 939.802 | 935.117 | 930.414 | 1380.1 | 1361 | 1339.9
x2 = 0.0367 | 937.731 | 933.031 | 928.307 | 1376.6 | 1357.6 | 1336.4
x2 = 0.0731 | 935.665 | 930.947 | 926.208 | 1373 | 1354.1 | 1332.8
x2 = 0.1274 | 932.552 | 927.811 | 923.053 | 1367.7 | 1348.5 | 1327.2
x2 = 0.1751 | 929.795 | 925.036 | 920.257 | 1363 | 1343.5 | 1322
x2 = 0.2373 | 926.162 | 921.378 | 916.581 | 1356.6 | 1336.7 | 1315.2
x2 = 0.2752 | 923.926 | 919.13 | 914.323 | 1352.6 | 1332.5 | 1310.9
x2 = 0.3262 | 920.901 | 916.081 | 911.259 | 1347.2 | 1326.7 | 1305.1
x2 = 0.3817 | 917.578 | 912.735 | 907.895 | 1341.2 | 1320.4 | 1298.7
x2 = 0.4248 | 914.974 | 910.121 | 905.265 | 1336.5 | 1315.4 | 1293.7
x2 = 0.4916 | 910.915 | 906.032 | 901.153 | 1328.9 | 1307.5 | 1285.8
x2 = 0.5525 | 907.178 | 902.268 | 897.366 | 1322 | 1300.4 | 1278.5
x2 = 0.6147 | 903.336 | 898.401 | 893.468 | 1314.9 | 1293 | 1271.1
x2 = 0.6674 | 900.064 | 895.101 | 890.14 | 1308.7 | 1286.8 | 1264.8
x2 = 0.7018 | 897.916 | 892.937 | 887.961 | 1304.7 | 1282.7 | 1260.7
x2 = 0.7736 | 893.419 | 888.402 | 883.383 | 1296.3 | 1274.2 | 1252
x2 = 0.8219 | 890.381 | 885.337 | 880.292 | 1290.6 | 1268.4 | 1246.2
x2 = 0.8673 | 887.518 | 882.452 | 877.377 | 1285.3 | 1262.9 | 1240.7
x2 = 0.9428 | 882.751 | 877.641 | 872.516 | 1276.5 | 1253.8 | 1231.5

Reference: the NIST ThermoML archive (doi:10.1016/j.tca.2011.02.002)
